{
  "source": "paper PMC5218480",
  "about": "(PLoS ONE, 2017)",
  "system": "MV-4-11 cells",
  "assay": "Gene expression microarray analysis (Affymetrix PrimeView) and GSEA",
  "format": "cell-based, human",
  "set-up": "RFU PODN (11730768_x_at) / Fold change /veh PODN (11730768_x_at) / RFU LINC00158 (11744669_a_at) / Fold change /veh LINC00158 (11744669_a_at) / RFU DUSP10 (11751237_a_at) / Fold change /veh DUSP10 (11751237_a_at) / RFU ID3 (11757404_x_at) / Fold change /veh ID3 (11757404_x_at) / RFU PLEKHG5 (11737974_s_at) / Fold change /veh PLEKHG5 (11737974_s_at) / RFU LRRC4B (11730491_at) / Fold change /veh LRRC4B (11730491_at) / RFU GIMAP4 (11747438_a_at) / Fold change /veh GIMAP4 (11747438_a_at) / RFU KRT8 (11758183_x_at) / Fold change /veh KRT8 (11758183_x_at) / RFU CNN1 (11734310_a_at) / Fold change /veh CNN1 (11734310_a_at) / RFU VPS37D (11726825_at) / Fold change /veh VPS37D (11726825_at) / RFU C10orf10 (11716522_x_at) / Fold change /veh C10orf10 (11716522_x_at) / RFU KIR2DL2 /// KIR2DL4 /// KIR2DL5A /// KIR2DL5B /// KIR2DS1 /// KIR2DS2 /// KIR2DS3 /// KIR2DS4 /// KIR3DL3 /// KIR3DL3 /// KIR3DS1 (11738374_at) / Fold change /veh KIR2DL2 /// KIR2DL4 /// KIR2DL5A /// KIR2DL5B /// KIR2DS1 /// KIR2DS2 /// KIR2DS3 /// KIR2DS4 /// KIR3DL3 /// KIR3DL3 /// KIR3DS1 (11738374_at) / RFU C1QL1 (11718748_at) / Fold change /veh C1QL1 (11718748_at) / RFU TMPRSS4 (11747572_a_at) / Fold change /veh TMPRSS4 (11747572_a_at) / RFU HAMP (11756126_x_at) / Fold change /veh HAMP (11756126_x_at) / RFU RNFT2 (11725882_a_at) / Fold change /veh RNFT2 (11725882_a_at) / RFU NR4A2 (11747474_a_at) / Fold change /veh NR4A2 (11747474_a_at) / RFU ABCC12 (11746883_a_at) / Fold change /veh ABCC12 (11746883_a_at) / RFU TMEM136 (11760407_x_at) / Fold change /veh TMEM136 (11760407_x_at) / RFU CLDN22 /// WWC2 (11732394_at) / Fold change /veh CLDN22 /// WWC2 (11732394_at) / RFU HLA-DPB1 (11760878_x_at) / Fold change /veh HLA-DPB1 (11760878_x_at) / RFU SPINT1 (11716480_a_at) / Fold change /veh SPINT1 (11716480_a_at) / RFU GAP43 (11754022_s_at) / Fold change /veh GAP43 (11754022_s_at) / RFU A4GNT (11735810_at) / Fold change /veh A4GNT (11735810_at) / RFU PRB3 (11715151_x_at) / Fold change /veh PRB3 (11715151_x_at) / RFU TUBB4B (11761932_at) / Fold change /veh TUBB4B (11761932_at) / RFU CAPN14 (11732068_a_at) / Fold change /veh CAPN14 (11732068_a_at) / RFU TMCC2 (11721928_a_at) / Fold change /veh TMCC2 (11721928_a_at) / RFU IRGQ (11745062_a_at) / Fold change /veh IRGQ (11745062_a_at) / RFU FAM174B (11720279_a_at) / Fold change /veh FAM174B (11720279_a_at) / RFU TMPRSS4 (11748680_a_at) / Fold change /veh TMPRSS4 (11748680_a_at) / RFU FAM212B (11763350_a_at) / Fold change /veh FAM212B (11763350_a_at) / RFU PLEKHG5 (11743358_a_at) / Fold change /veh PLEKHG5 (11743358_a_at) / RFU ZSCAN30 (11745921_a_at) / Fold change /veh ZSCAN30 (11745921_a_at) / RFU CMKLR1 (11741424_a_at) / Fold change /veh CMKLR1 (11741424_a_at) / RFU LOC101060620 /// MAPK8IP1 (11723275_at) / Fold change /veh LOC101060620 /// MAPK8IP1 (11723275_at) / RFU SPTSSB (11747773_x_at) / Fold change /veh SPTSSB (11747773_x_at) / RFU PRSS12 (11739890_at) / Fold change /veh PRSS12 (11739890_at) / RFU BIN1 (11741810_x_at) / Fold change /veh BIN1 (11741810_x_at) / RFU WNT11 (11732464_a_at) / Fold change /veh WNT11 (11732464_a_at) / RFU C10orf10 (11716521_a_at) / Fold change /veh C10orf10 (11716521_a_at) / RFU C5orf56 (11738089_at) / Fold change /veh C5orf56 (11738089_at) / RFU CYB561 (11721691_x_at) / Fold change /veh CYB561 (11721691_x_at) / RFU ANKRD19P (11752326_a_at) / Fold change /veh ANKRD19P (11752326_a_at) / RFU OR2T12 /// OR2T33 /// OR2T8 (11738714_s_at) / Fold change /veh OR2T12 /// OR2T33 /// OR2T8 (11738714_s_at) / RFU VCAN (11748164_a_at) / Fold change /veh VCAN (11748164_a_at) / RFU JSRP1 (11732532_at) / Fold change /veh JSRP1 (11732532_at) / RFU KRTAP10-11 (11738290_x_at) / Fold change /veh KRTAP10-11 (11738290_x_at) / RFU MYO3A (11730013_a_at) / Fold change /veh MYO3A (11730013_a_at) / RFU EBF3 (11725865_a_at) / Fold change /veh EBF3 (11725865_a_at) / RFU CAMK2N1 (11719241_x_at) / Fold change /veh CAMK2N1 (11719241_x_at) / RFU C5orf56 (11738088_a_at) / Fold change /veh C5orf56 (11738088_a_at) / RFU OLFML3 (11715873_a_at) / Fold change /veh OLFML3 (11715873_a_at) / RFU LOC100653217 /// NTM (11731650_a_at) / Fold change /veh LOC100653217 /// NTM (11731650_a_at) / RFU MAPK11 (11762145_a_at) / Fold change /veh MAPK11 (11762145_a_at) / RFU FIZ1 (11724087_x_at) / Fold change /veh FIZ1 (11724087_x_at) / RFU OASL (11726364_x_at) / Fold change /veh OASL (11726364_x_at) / RFU SOX15 (11748057_x_at) / Fold change /veh SOX15 (11748057_x_at) / RFU CD79A (11719716_a_at) / Fold change /veh CD79A (11719716_a_at) / RFU HIST1H1D (11736915_at) / Fold change /veh HIST1H1D (11736915_at) / RFU CASKIN2 (11723855_a_at) / Fold change /veh CASKIN2 (11723855_a_at) / RFU LOC730098 (11760151_x_at) / Fold change /veh LOC730098 (11760151_x_at) / RFU OR4N2 (11742367_at) / Fold change /veh OR4N2 (11742367_at) / RFU PRRT2 (11749266_a_at) / Fold change /veh PRRT2 (11749266_a_at) / RFU SNX32 (11753110_a_at) / Fold change /veh SNX32 (11753110_a_at) / RFU CDHR5 (11726645_a_at) / Fold change /veh CDHR5 (11726645_a_at) / RFU RCAN1 (11760418_a_at) / Fold change /veh RCAN1 (11760418_a_at) / RFU FAM167A (11723789_a_at) / Fold change /veh FAM167A (11723789_a_at) / RFU FAM26E (11764081_at) / Fold change /veh FAM26E (11764081_at) / RFU ISYNA1 (11749810_s_at) / Fold change /veh ISYNA1 (11749810_s_at) / RFU ACY1 (11761880_at) / Fold change /veh ACY1 (11761880_at) / RFU 11764098_at / Fold change /veh 11764098_at / RFU SAMD14 (11745864_x_at) / Fold change /veh SAMD14 (11745864_x_at) / RFU NPB (11741838_a_at) / Fold change /veh NPB (11741838_a_at) / RFU TMPRSS6 (11731388_a_at) / Fold change /veh TMPRSS6 (11731388_a_at) / RFU KRTAP10-2 (11738614_at) / Fold change /veh KRTAP10-2 (11738614_at) / RFU ARHGAP8 /// PRR5-ARHGAP8 (11727945_x_at) / Fold change /veh ARHGAP8 /// PRR5-ARHGAP8 (11727945_x_at) / RFU KRTAP5-7 /// NADSYN1 (11734609_at) / Fold change /veh KRTAP5-7 /// NADSYN1 (11734609_at) / RFU RASL12 (11751679_a_at) / Fold change /veh RASL12 (11751679_a_at) / RFU CDKN2B (11736163_a_at) / Fold change /veh CDKN2B (11736163_a_at) / RFU PRF1 (11729649_at) / Fold change /veh PRF1 (11729649_at) / RFU, ZNF638 /// ZNF638-IT1 / Fold change vs veh, ZNF638 /// ZNF638-IT1 / RFU, PANK3 / Fold change vs veh, PANK3 / RFU, SH3YL1 / Fold change vs veh, SH3YL1 / RFU, ZEB2 / Fold change vs veh, ZEB2 / RFU, NRIP1 / Fold change vs veh, NRIP1 / RFU, PTTG1IP / Fold change vs veh, PTTG1IP / RFU, CAPN2 / Fold change vs veh, CAPN2 / RFU, MED14 / Fold change vs veh, MED14 / RFU, SNORA58 / Fold change vs veh, SNORA58 / RFU, C1orf63 / Fold change vs veh, C1orf63 / RFU, LRRFIP1 / Fold change vs veh, LRRFIP1 / RFU, NDUFAF7 / Fold change vs veh, NDUFAF7 / RFU, SLC12A2 / Fold change vs veh, SLC12A2 / RFU, IBTK / Fold change vs veh, IBTK / RFU, ESF1 / Fold change vs veh, ESF1 / Fold change vs veh, TMEM50B / RFU, TAOK1 / Fold change vs veh, TAOK1 / RFU, ACBD3 / Fold change vs veh, ACBD3 / RFU, TMA16 / Fold change vs veh, TMA16 / RFU, RWDD3 / Fold change vs veh, RWDD3 / RFU, BCAT1 / Fold change vs veh, BCAT1 / RFU, EDEM3 / Fold change vs veh, EDEM3 / RFU, TMEM33 / Fold change vs veh, TMEM33 / RFU, WDR75 / Fold change vs veh, WDR75 / RFU, AHCTF1 / Fold change vs veh, AHCTF1 / RFU, TFRC / Fold change vs veh, TFRC / RFU, ZDHHC17 / Fold change vs veh, ZDHHC17 / RFU, NOM1 / Fold change vs veh, NOM1 / RFU, ARL8B / Fold change vs veh, ARL8B / RFU, ZBTB11 / Fold change vs veh, ZBTB11 / RFU, TAMM41 / Fold change vs veh, TAMM41 / RFU, KIAA1704 /// LOC100996395 / Fold change vs veh, KIAA1704 /// LOC100996395 / RFU, ING1 / Fold change vs veh, ING1 / RFU, TRMT61B / Fold change vs veh, TRMT61B / RFU, FUBP3 / Fold change vs veh, FUBP3 / RFU, TP53 / Fold change vs veh, TP53 / RFU, TNKS2 / Fold change vs veh, TNKS2 / RFU, ZFP14 / Fold change vs veh, ZFP14 / RFU, ACTR2 / Fold change vs veh, ACTR2 / RFU, PPP3R1 / Fold change vs veh, PPP3R1 / RFU, PIK3R1 / Fold change vs veh, PIK3R1 / RFU, HNRNPA1 / Fold change vs veh, HNRNPA1 / RFU, RNF170 / Fold change vs veh, RNF170 / RFU, ZNF28 / Fold change vs veh, ZNF28 / RFU, RNGTT / Fold change vs veh, RNGTT / RFU, OGT / Fold change vs veh, OGT / RFU, BRD1 / Fold change vs veh, BRD1 / RFU, MARS / Fold change vs veh, MARS / RFU, ZNF655 / Fold change vs veh, ZNF655 / RFU, FAHD1 / Fold change vs veh, FAHD1 / RFU, BDP1 / Fold change vs veh, BDP1 / RFU, LRRCC1 / Fold change vs veh, LRRCC1 / RFU, ARID1A / Fold change vs veh, ARID1A / RFU, ZNF146 / Fold change vs veh, ZNF146 / RFU, ZNF330 / Fold change vs veh, ZNF330 / RFU, GPN3 / Fold change vs veh, GPN3 / RFU, C9orf123 / Fold change vs veh, C9orf123 / RFU, N4BP2L2 / Fold change vs veh, N4BP2L2 / RFU, ARFIP1 / Fold change vs veh, ARFIP1 / RFU, FAM179B / Fold change vs veh, FAM179B / RFU, BCL10 / Fold change vs veh, BCL10 / RFU, UHRF1BP1L / Fold change vs veh, UHRF1BP1L / RFU, BET1 / Fold change vs veh, BET1 / RFU, CNOT2 / Fold change vs veh, CNOT2 / RFU, ZNF268 / Fold change vs veh, ZNF268 / Fold change vs veh, ZNF507 / RFU, DGCR2 / Fold change vs veh, DGCR2 / RFU, WDSUB1 / Fold change vs veh, WDSUB1 / Fold change vs veh, HSP90B1 /// MIR3652 / RFU, ADSS / Fold change vs veh, ADSS / RFU, GK / Fold change vs veh, GK / RFU, ZNF148 / Fold change vs veh, ZNF148 / RFU, TAF9 / Fold change vs veh, TAF9 / RFU, SLC1A5 / Fold change vs veh, SLC1A5 / RFU, SLMO2 / Fold change vs veh, SLMO2 / RFU, ABCC4 / Fold change vs veh, ABCC4 / RFU, LOC101060439 /// RAP1B / Fold change vs veh, LOC101060439 /// RAP1B / RFU, RFX7 / Fold change vs veh, RFX7 / RFU, GTPBP10 / Fold change vs veh, GTPBP10 / RFU, CNEP1R1 / Fold change vs veh, CNEP1R1 / RFU, BIVM-ERCC5 /// ERCC5 / Fold change vs veh, BIVM-ERCC5 /// ERCC5 / RFU, ILF3 / Fold change vs veh, ILF3 / RFU 11762660_at / Fold change /veh 11762660_at / RFU VCAN (11757783_s_at) / Fold change /veh VCAN (11757783_s_at) / RFU DDX43 (11728927_at) / Fold change /veh DDX43 (11728927_at) / RFU KRT8 (11758188_x_at) / Fold change /veh KRT8 (11758188_x_at) / RFU NKD1 (11759106_at) / Fold change /veh NKD1 (11759106_at) / RFU SRD5A1 (11742802_a_at) / Fold change /veh SRD5A1 (11742802_a_at) / RFU TPSAB1 /// TPSB2 (11721975_s_at) / Fold change /veh TPSAB1 /// TPSB2 (11721975_s_at) / RFU GSTM3 (11746129_a_at) / Fold change /veh GSTM3 (11746129_a_at) / RFU IL23R (11737362_x_at) / Fold change /veh IL23R (11737362_x_at) / RFU TMEM51 (11727254_a_at) / Fold change /veh TMEM51 (11727254_a_at) / RFU PIWIL2 (11732686_x_at) / Fold change /veh PIWIL2 (11732686_x_at) / RFU ORM1 (11744905_x_at) / Fold change /veh ORM1 (11744905_x_at) / RFU CCDC152 (11743942_at) / Fold change /veh CCDC152 (11743942_at) / RFU ECM1 (11717891_a_at) / Fold change /veh ECM1 (11717891_a_at) / RFU IL23R (11748794_a_at) / Fold change /veh IL23R (11748794_a_at) / RFU TNFAIP8L3 (11732012_x_at) / Fold change /veh TNFAIP8L3 (11732012_x_at) / RFU MBOAT4 (11741988_at) / Fold change /veh MBOAT4 (11741988_at) / RFU 11764193_at / Fold change /veh 11764193_at / RFU TMEM53 (11763286_at) / Fold change /veh TMEM53 (11763286_at) / RFU MAGEB2 (11727129_at) / Fold change /veh MAGEB2 (11727129_at) / RFU TMEM200A (11744735_a_at) / Fold change /veh TMEM200A (11744735_a_at) / RFU CCDC152 (11751479_a_at) / Fold change /veh CCDC152 (11751479_a_at) / RFU FAM211A (11726209_a_at) / Fold change /veh FAM211A (11726209_a_at) / RFU RGS16 (11746705_a_at) / Fold change /veh RGS16 (11746705_a_at) / RFU VCAN (11755009_s_at) / Fold change /veh VCAN (11755009_s_at) / RFU RHOB (11743442_s_at) / Fold change /veh RHOB (11743442_s_at) / RFU RGS16 (11720943_a_at) / Fold change /veh RGS16 (11720943_a_at) / RFU RGS16 (11720944_at) / Fold change /veh RGS16 (11720944_at) / RFU, VPS4B / Fold change vs veh, VPS4B / RFU, CREB1 / Fold change vs veh, CREB1 / RFU, DNAJC13 / Fold change vs veh, DNAJC13 / RFU, GNAQ / Fold change vs veh, GNAQ / RFU, CDK5R1 / Fold change vs veh, CDK5R1 / RFU, ZRANB3 / Fold change vs veh, ZRANB3 / RFU, CUL4A / Fold change vs veh, CUL4A / RFU, CCNY / Fold change vs veh, CCNY / RFU, UFL1 / Fold change vs veh, UFL1 / RFU, COG3 / Fold change vs veh, COG3 / RFU, DIAPH2 / Fold change vs veh, DIAPH2 / RFU, SKA2 / Fold change vs veh, SKA2 / RFU, AFF3 / Fold change vs veh, AFF3 / RFU, LMF1 / Fold change vs veh, LMF1 / RFU, IPO11 / Fold change vs veh, IPO11 / RFU, DFFB / Fold change vs veh, DFFB / RFU, FOXP1 / Fold change vs veh, FOXP1 / RFU, CARD8 / Fold change vs veh, CARD8 / RFU, STRN3 / Fold change vs veh, STRN3 / RFU, ADK / Fold change vs veh, ADK / RFU, RASSF2 / Fold change vs veh, RASSF2 / RFU, WIPF1 / Fold change vs veh, WIPF1 / RFU, LARP1B / Fold change vs veh, LARP1B / RFU, RASA1 / Fold change vs veh, RASA1 / RFU, RB1 / Fold change vs veh, RB1 / RFU, PPFIA1 / Fold change vs veh, PPFIA1 / RFU, MAT2A / Fold change vs veh, MAT2A / RFU, CCT5 / Fold change vs veh, CCT5 / RFU, WDR92 / Fold change vs veh, WDR92 / RFU, CUX1 / Fold change vs veh, CUX1 / RFU, TTC7A / Fold change vs veh, TTC7A / RFU, TMEM135 / Fold change vs veh, TMEM135 / RFU, DEPTOR / Fold change vs veh, DEPTOR / RFU, CPM / Fold change vs veh, CPM / RFU, DNAJB6 / Fold change vs veh, DNAJB6 / RFU, CACNA2D3 / Fold change vs veh, CACNA2D3 / RFU, DTX4 / Fold change vs veh, DTX4 / RFU, TFCP2 / Fold change vs veh, TFCP2 / RFU, GMCL1 /// GMCL1P1 / Fold change vs veh, GMCL1 /// GMCL1P1 / RFU, AEBP2 / Fold change vs veh, AEBP2 / RFU, SNHG1 /// SNORD22 /// SNORD25 /// SNORD26 /// SNORD27 /// SNORD28 /// SNORD29 /// SNORD31 / Fold change vs veh, SNHG1 /// SNORD22 /// SNORD25 /// SNORD26 /// SNORD27 /// SNORD28 /// SNORD29 /// SNORD31 / Fold change (Aza/veh), C12orf56 (ProbeSet 11735607_a_at) / Fold change (ACY-1035/veh), C12orf56 (ProbeSet 11735607_a_at) / Fold change (Aza/veh), FGFR1OP (ProbeSet 11751329_s_at) / Fold change (ACY-1035/veh), FGFR1OP (ProbeSet 11751329_s_at) / Fold change (Aza/veh), VPS36 (ProbeSet 11739960_a_at) / Fold change (ACY-1035/veh), VPS36 (ProbeSet 11739960_a_at) / RFU SYPL1 (11715823_x_at) / Fold change /veh SYPL1 (11715823_x_at) / RFU IGFBP7 (11715501_s_at) / Fold change /veh IGFBP7 (11715501_s_at) / RFU REEP3 (11722064_at) / Fold change /veh REEP3 (11722064_at) / RFU IGLL1 (11728026_x_at) / Fold change /veh IGLL1 (11728026_x_at): dose or concentration left out as unconfirmed",
  "settings": "MV-4-11 cells, 48 hours",
  "data": [
    {"smiles": "Nc1ccc(-c2cccs2)cc1NC(=O)c1ccc2c(c1)cc(C1CC1)n2CCN1CCOCC1", "note": "[ACY-1035]", "values": [
      {"measurement": "Fold change /veh VCAN (11757783_s_at)", "result": 1.01}
    ]}
  ]
}
